Experiment [1] has as its system LtP. Nature of the experiment: Uncoupling of LtP respiration in presence of oligomycin (OxoPlates). The experiment is classed as cell-based, Leishmania tarentolae. As to conditions: 38 µM Oligo. The procedure:
The uncoupling experiments using OxoPlates were carried out in analogy to oxygen consumption measurements of LtP. An oligomycin (Oligo) premix in aBHI was prepared leading to a final concentration of 38 µM oligomycin (Oligo). Each well of the second row was filled with 50 µL of aBHI. From the third row on, each well was filled with 50 µL of the Oligo premix and to the fourth row additional 50 µL Oligo premix was added. The respective amounts of the substances (Ac, AQ, AcEP1117, AcEP1118, AcEP1129, AcEP1130, CCCP) were added and a serial 1:2 dilution was performed. Measurements were carried out as described above. The oxygen consumption rates were normalized to the wells that contained only LtP. For each concentration measurements were done in triplicates.

The subject of experiment [2] is LtP. The experiment can be described thus: EPR (CMH oxidation): superoxide formation in LtP. The experiment is classed as cell-based, Leishmania tarentolae. As to conditions: 20 µM AA or 100 µM other compounds, 500 × 10^6 LtP/mL, 400 µM CMH, DFO, DTPA, 5 min, 25 °C. The method, then: To measure superoxide radical (O2^•−) formation induced by AcEPs in LtP, EPR spectroscopy was used. An aliquot of the cell broth was transferred into an Eppendorf tube that was centrifuged (Hettich Universal 16, 20 °C, 2000× g, 10 min). The supernatant was discarded, the cell pellet was resuspended in PBS and centrifuged again. After removal of the supernatant, the cell pellet was resuspended in a mixture of PBS, 15 mM glucose (PBS/Glu), DFO (100 µM), and DTPA (25 µM). […] The cell suspension was aliquoted. CMH was added as detection agent leading to a final concentration of 400 µM. After 5 min of incubation at 25 °C, the respective substance was added resulting in final concentrations of 20 µM antimycin A (AA) or 100 µM of AcEP1117, AcEP1118, AcEP1129, AcEP1130, Ac, and AQ. Samples containing LtP and CMH were used as negative control. Samples containing PBS/Glu and CMH were used as negative control as well. After 5 min of incubation at 25 °C with the respective substance, aliquots of 17 µL of the cell suspensions were aspirated into a PTFE tube (outer diameter 0.7 mm). The tube was transferred into the MD5 resonator of the EPR spectrometer. Immediately, the measurement was started using the following parameters: microwave frequency 9.684 GHz; microwave power 20 mW, modulation frequency 100 kHz; modulation amplitude 1 G; time constant 0.82 s; center field 3449 G; scan rate 14 G/min; sweep width 100 G; scan time 419 s; attenuation 2.52 × 10^4; and scans 5.

Experiment [3] is described as follows: Xylenol orange assay: reaction of endoperoxides with Fe2+. Particulars: 50 µM compound, 250 µM FeSO4, 125 µM xylenol orange, methanol/H2O (9:1 v/v). The procedure:
Xylenol orange (XO) (125 µM) and butylated hydroxytoluene (4 mM) were dissolved in methanol/H2O (9:1, v/v). FeSO4 (25 mM) in 2.5 M H2SO4 was prepared immediately before use and added, giving a final concentration of 250 µM FeSO4 in the samples. An aliquot of 100 µL EP solution (final concentration of 50 µM) was transferred into a disposable 1.5 mL cuvette (BRAND, Wertheim, Germany), and 1 mL of the color reagent was added. […] At these time points, the OD difference of the sample at 560 nm and 650 nm was determined using a MS1501 UV-vis diode array spectrophotometer (Shimadzu, Japan). As reference, a mixture of methanol/H2O (9:1, v/v) was used. […] The slope of the reaction rate was calculated using an extinction coefficient of the complex of 1.5 × 10^4 M^−1 cm^−1.

Experiment [4] relates to LtP. The experiment can be described thus: EPR spin trapping (DMPO): activation of AcEPs by LtP. The experiment is classed as cell-based, Leishmania tarentolae. Particulars: 500 µM compound, 2 × 10^9 LtP/mL, 40 mM DMPO, 15 min, no added iron. The procedure:
To detect the radicals derived from AcEPs in LtP, EPR experiments were performed using DMPO as spin trap. Aliquots of the cell broth were transferred into Sarstedt tubes that were centrifuged (20 °C, 1800× g, 10 min), and the supernatants were discarded. Then the cell pellets were resuspended in PBS and centrifuged again. After removal of the supernatants, the cell pellets were resuspended in a mixture of PBS containing glucose (15 mM), giving a final cell number of 2 × 10^9 LtP/mL. Aliquots (150 µL) were incubated in 1.5 mL Eppendorf tubes with aeration holes. The cells were incubated with DMPO (40 mM) for 5 min at 26 °C, and after addition of 500 µM of the respective substance (Asc, AcEP1117, AcEP1118, AcEP1129, AcEP1130, Ac or AQ), the samples were incubated for additional 15 min at 26 °C under constant agitation (agitation speed: 0.3 s^−1). Control samples containing LtP, LtP and DMSO (1.27%, v/v), or PBS/glucose alone were incubated with 40 mM DMPO under the same conditions. Cell samples containing DMPO that were treated with Asc served as positive control. Samples treated with Ac or AQ were used as negative controls. Subsequently, 50 µL of the samples were aspirated into glass capillaries and transferred in the MD5 resonator of the EPR spectrometer. The samples were measured immediately using the following instrument settings: microwave frequency 9.684 GHz; microwave power 20 mW, modulation frequency 100 kHz; modulation amplitude 2 G; time constant 0.164 s; center field 3449 G; scan rate 71 G/min; sweep width 100 G; scan time 84 s; attenuation 8.93 × 10^5; and scans 3.

The structures appear in SMILES notation.

As to `N#CC(C#N)=NNc1cccc(Cl)c1` [CCCP, carbonyl cyanide m-chlorophenylhydrazone], the “uncoupling effect (recovery of O2 consumption in the presence of Oligo)” value in the experiment with LtP [1] (0.31–5.0 µM CCCP or 12.5–200.0 µM other compounds) is “a recovery of O2 consumption in the presence of Oligo was observed”.

On to `CC[C@H]1/C=C/C=C/C[C@@H](C)[C@H](O)[C@@](C)(O)C(=O)[C@@H](C)[C@H](O)[C@@H](C)C(=O)[C@@H](C)[C@H](O)[C@@H](C)/C=C/C(=O)O[C@@H]2[C@H](C)[C@H](CC1)O[C@]1(CC[C@H](C)[C@H](C[C@@H](C)O)O1)[C@H]2C` [Oligo, oligomycin], for which the “oxygen consumption rate compared to untreated LtP” value in the experiment with LtP [1] (140 × 10^6 LtP/mL) is on record as “about 60%”.

With `CCCCCC[C@H]1C(=O)O[C@H](C)[C@H](NC(=O)c2cccc(NC=O)c2O)C(=O)O[C@@H](C)[C@@H]1OC(=O)CC(C)C` [AA, antimycin A, reference compound], the “CMH oxidation (superoxide radical formation) in LtP” value with LtP [2] was “triggered additional CMH oxidation in LtP”.

As to `CC(C)C12C=CC(C)(CC1)OO2` (centres unmarked) [Asc, ascaridole, reference compound], the “Slope (nM·min^−1) Mean ± SD of XO/Fe^3+ complex formation” value in experiment [3] is 608 ± 52 nM/min. For the same compound, in the experiment with LtP [4], the “DMPO spin adduct formation in LtP (EPR)” value is given as “showed DMPO spin adducts of carbon-centered radicals”.

The values above are taken from paper PMC6100073, “Activation of Anthracene Endoperoxides in Leishmania and Impairment of Mitochondrial Functions” (Molecules : A Journal of Synthetic Chemistry and Natural …, 2018).
